Reference: patent US20260256751A1, “COMBINATION OF BETA-2-ADRENERGIC RECEPTOR AGONISTS AND GLP-1 RECEPTOR AGONISTS FOR USE IN TREATING HYPERGLYCAEMIA” (ATROGI AB, priority 2023, published 2026)

Experiments:
[1] = test system: differentiated L6-myotubes; experiment: Glucose uptake screen (Biological example 1 of WO 2019/053427); format: cell-based; conditions: compound at 10 μM, activity relative to isoproterenol at 10 μM, read-out: Biological example 1 of WO 2019/053427 (GU)
Summary of the method: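 Uptake was read out as ^3H-2-deoxyglucose (50 nM, 10 min) radioactivity in NaOH lysates. Beforehand, overnight-starved, differentiated L6 myotubes received compound at 1×10^−5 M with ICI-118551 present for 1 h 40 min, followed by fresh agonist for a further 20 min in glucose-free medium.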

[2] = test system: differentiated L6-myotubes; experiment: cAMP production relative to isoprenaline (Biological example 2 of WO 2019/053427); format: cell-based; conditions: 0.25 h, compound at 10 μM, activity relative to isoproterenol at 10 μM
Summary of the method: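 Values are cAMP levels relative to isoprenaline at equal concentration (final 1×10^−5 M for both). Stimulation lasted 15 min in differentiated L6 myotubes, using HBSS buffer (pH 7.4) containing 1 mM IBMX, 5 mM HEPES and 1% BSA.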

Structure (SMILES)	Emax at 10 µM [1]	Emax at 10 µM [2]
CC(C)(C[C@H]1CC[C@@H](O)CC1)NC[C@H](O)c1cccc(F)c1 [Compound 302, (R)-2-{1,1-dimethyl-2-[(1s,4S)-4-hydroxycyclohexyl]ethylamino}-1-(m-fluorophenyl)-1-ethanol]	50 to 75%	< 25%
O[C@@H](CNCCC[C@H]1CC[C@H](O)CC1)c1cccc(F)c1 [Compound 303, (R)-1-(m-fluorophenyl)-2-{3-[(1r,4S)-4-hydroxycyclohexyl]propylamino}-1-ethanol]	50 to 75%	< 25%
O[C@@H](CNCCC[C@H]1CC[C@@H](O)CC1)c1cncc(F)c1 [Compound 304, (R)-1-(5-fluoro-3-pyridyl)-2-{3-[(1s,4R)-4-hydroxycyclohexyl]propylamino}-1-ethanol]	50 to 75%	< 25%
O[C@@H](CNCCC[C@H]1CC[C@H](O)CC1)c1cncc(F)c1 [Compound 305, (R)-1-(5-fluoro-3-pyridyl)-2-{3-[(1r,4S)-4-hydroxycyclohexyl]propylamino}-1-ethanol]	25 to 50%	< 25%
O[C@@H](CNCCC[C@H]1CC[C@@H](O)CC1)c1cccc(F)c1 [Compound 306, (R)-1-(m-fluorophenyl)-2-{3-[(1s,4R)-4-hydroxycyclohexyl]propylamino}-1-ethanol]	25 to 50%	< 25%
CC(=O)N[C@H]1CC[C@@H](CNC[C@H](O)c2cccc(F)c2)CC1 [Compound 307, N-[(1S,4s)-4-{[(R)-2-(m-fluorophenyl)-2-hydroxyethylamino]methyl}cyclohexyl]acetamide]	50 to 75%	< 25%
CC(=O)N[C@H]1CC[C@H](CNC[C@H](O)c2cccc(F)c2)CC1 [Compound 308, N-[(1R,4r)-4-{[(R)-2-(m-fluorophenyl)-2-hydroxyethylamino]methyl}cyclohexyl]acetamide]	50 to 75%	< 25%
CC(=O)N[C@H]1CC[C@H](CNC[C@H](O)c2cncc(F)c2)CC1 [Compound 309, N-[(1R,4r)-4-{[(R)-2-(5-fluoro-3-pyridyl)-2-hydroxyethylamino]methyl}cyclohexyl]acetamide]	50 to 75%	< 25%
CC(=O)N[C@H]1CC[C@@H](CNC[C@H](O)c2cncc(F)c2)CC1 [Compound 310, N-[(1S,4s)-4-{[(R)-2-(5-fluoro-3-pyridyl)-2-hydroxyethylamino]methyl}cyclohexyl]acetamide]	25 to 50%	< 25%
CS(=O)(=O)N[C@H]1CC[C@H](CNC[C@H](O)c2cccc(F)c2)CC1 [Compound 311, (R)-1-(m-fluorophenyl)-2-({[(1r,4R)-4-(mesylamino)cyclohexyl]methyl}amino)-1-ethanol]	50 to 75%	< 25%
CS(=O)(=O)N[C@H]1CC[C@@H](CNC[C@H](O)c2cccc(F)c2)CC1 [Compound 312, (R)-1-(m-fluorophenyl)-2-({[(1s,4S)-4-(mesylamino)cyclohexyl]methyl}amino)-1-ethanol]	50 to 75%	< 25%
CS(=O)(=O)N[C@H]1CC[C@H](CNC[C@H](O)c2cncc(F)c2)CC1 [Compound 313, (R)-1-(5-fluoro-3-pyridyl)-2-({[(1r,4R)-4-(mesylamino)cyclohexyl]methyl}amino)-1-ethanol]	25 to 50%	< 25%
CS(=O)(=O)N[C@H]1CC[C@@H](CNC[C@H](O)c2cncc(F)c2)CC1 [Compound 314, (R)-1-(5-fluoro-3-pyridyl)-2-({[(1s,4S)-4-(mesylamino)cyclohexyl]methyl}amino)-1-ethanol]	50 to 75%	< 25%
O=C(N[C@H]1CC[C@H](CNC[C@H](O)c2cccc(F)c2)CC1)c1ccccc1 [Compound 315, N-[(1R,4r)-4-{[(R)-2-(m-fluorophenyl)-2-hydroxyethylamino]methyl}cyclohexyl]benzamide]	> 75%	< 25%
O=C(N[C@H]1CC[C@@H](CNC[C@H](O)c2cccc(F)c2)CC1)c1ccccc1 [Compound 316, N-[(1S,4s)-4-{[(R)-2-(m-fluorophenyl)-2-hydroxyethylamino]methyl}cyclohexyl]benzamide]	50 to 75%	< 25%
O=C(N[C@H]1CC[C@H](CNC[C@H](O)c2cncc(F)c2)CC1)c1ccccc1 [Compound 317, N-[(1R,4r)-4-{[(R)-2-(5-fluoro-3-pyridyl)-2-hydroxyethylamino]methyl}cyclohexyl]benzamide]	50 to 75%	< 25%
O=C(N[C@H]1CC[C@@H](CNC[C@H](O)c2cncc(F)c2)CC1)c1ccccc1 [Compound 318, N-[(1S,4s)-4-{[(R)-2-(5-fluoro-3-pyridyl)-2-hydroxyethylamino]methyl}cyclohexyl]benzamide]	50 to 75%	< 25%
CC(C)(CC[C@H]1CC[C@H](O)CC1)NC[C@H](O)c1ccccc1F [Compound 319, (R)-2-{1,1-dimethyl-3-[(1r,4S)-4-hydroxycyclohexyl]propylamino}-1-(o-fluorophenyl)-1-ethanol]	> 75%	< 25%
CC(C)(CC[C@H]1CC[C@@H](O)CC1)NC[C@H](O)c1ccccc1F [Compound 320, (R)-2-{1,1-dimethyl-3-[(1s,4R)-4-hydroxycyclohexyl]propylamino}-1-(o-fluorophenyl)-1-ethanol]	> 75%	25 to 50%
COC(=O)[C@H]1CC[C@@H](C(C)(C)NC[C@H](O)c2cncc(F)c2)CC1 [Compound 321, (1S,4s)-8-[(R)-2-(5-fluoro-3-pyridyl)-2-hydroxyethylamino]-7-methoxy-p-menthan-7-one]	50 to 75%	< 25%
COC(=O)[C@H]1CC[C@@H](CC(C)(C)NC[C@H](O)c2cncc(F)c2)CC1 [Compound 322, methyl (1S,4s)-4-{2-[(R)-2-(5-fluoro-3-pyridyl)-2-hydroxyethylamino]-2-methylpropyl}cyclohexanecarboxylate]	> 75%	< 25%
CC(C)(NC[C@H](O)c1cncc(F)c1)[C@H]1CC[C@@H](C(=O)O)CC1 [Compound 323, (1S,4s)-8-[(R)-2-(5-fluoro-3-pyridyl)-2-hydroxyethylamino]-7-hydroxy-p-menthan-7-one]	25 to 50%	50 to 75%
CC(C)(C[C@H]1CC[C@@H](C(=O)O)CC1)NC[C@H](O)c1cncc(F)c1 [Compound 324, (1S,4s)-4-{2-[(R)-2-(5-fluoro-3-pyridyl)-2-hydroxyethylamino]-2-methylpropyl}cyclohexanecarboxylic acid]	25 to 50%	< 25%
CO[C@H]1CC[C@H](C[C@@H]2CC[C@H]([C@@H](O)c3cccc(F)c3)N2)CC1 [Compound 325, (S)-[(2R,5S)-5-{[(1r,4S)-4-methoxycyclohexyl]methyl}-2-pyrrolidinyl](m-fluorophenyl)methanol]	> 75%	< 25%
CO[C@H]1CC[C@H](C[C@@H]2CC[C@H]([C@H](O)c3cccc(F)c3)N2)CC1 [Compound 326, (R)-[(2R,5S)-5-{[(1r,4S)-4-methoxycyclohexyl]methyl}-2-pyrrolidinyl](m-fluorophenyl)methanol]	> 75%	< 25%
